This note sets out measurements from patent US5679701A (priority 1996, dated 1997).

Entries after “also recorded” stand apart in the source; their conditions may differ. Where two headings read alike, the source gives them in different places.

The test system of test [1] is SR Ca^++ release channel/ryanodine receptor (cardiac and skeletal muscle vesicles). The test is classed as biochemical.
The target of test [2] is T1, ryanodine receptor (skeletal sarcoplasmic reticulum membrane vesicles) (Oryctolagus cuniculus, UniProt P11716).
T1 construct: skeletal sarcoplasmic reticulum membrane vesicles; from tissue; host or cells: skeletal muscle sarcoplasmic reticulum membrane vesicles
The experiment in a line: biochemical. The test is classed as binding.

For test [3], the target named is T2, Sarcoplasmic Reticular Ca^++ -Release Channel (ryanodine receptor) (Oryctolagus cuniculus, UniProt P11716).
T2 construct: skeletal sarcoplasmic reticulum membrane vesicles; from tissue; host or cells: skeletal muscle sarcoplasmic reticulum membrane vesicles
Description: biochemical. The test is classed as binding.

The target of test [4] is SR Ca^2+ release channel (junctional SR vesicles from rabbit skeletal muscle) (Oryctolagus cuniculus, UniProt P11716). Description: biochemical. The test is classed as biochemical. Here is the method:
Briefly, junctional SR vesicles from rabbit skeletal muscle were passively loaded with. ^45 Ca^2+ in the presence and absence of the esters. Ca^2+ -efflux was then initiated by diluting the vesicles 100-fold into a low Ca^2+ -concentration. ^45 Ca^2+ remaining in the vesicles was determined after a 3 sec. efflux period by termination and filtration of the vesicles followed by liquid scintillation counting.

Where [5] appears, read: Table I, displacement of 6.7 nM [3H]ryanodine, mean ± standard deviation of replicates, read-out: IC50.
[6] abbreviates: Table I, mean ± standard deviation of replicates, read-out: KD.
[7] abbreviates: second embodiment, read-out: IC50.
[8] abbreviates: first embodiment, read-out: IC50.
[9] abbreviates: Table II, more highly purified standards, read-out: IC50 (nM) ± S.D.

T2 sequence (P11716 whole entry): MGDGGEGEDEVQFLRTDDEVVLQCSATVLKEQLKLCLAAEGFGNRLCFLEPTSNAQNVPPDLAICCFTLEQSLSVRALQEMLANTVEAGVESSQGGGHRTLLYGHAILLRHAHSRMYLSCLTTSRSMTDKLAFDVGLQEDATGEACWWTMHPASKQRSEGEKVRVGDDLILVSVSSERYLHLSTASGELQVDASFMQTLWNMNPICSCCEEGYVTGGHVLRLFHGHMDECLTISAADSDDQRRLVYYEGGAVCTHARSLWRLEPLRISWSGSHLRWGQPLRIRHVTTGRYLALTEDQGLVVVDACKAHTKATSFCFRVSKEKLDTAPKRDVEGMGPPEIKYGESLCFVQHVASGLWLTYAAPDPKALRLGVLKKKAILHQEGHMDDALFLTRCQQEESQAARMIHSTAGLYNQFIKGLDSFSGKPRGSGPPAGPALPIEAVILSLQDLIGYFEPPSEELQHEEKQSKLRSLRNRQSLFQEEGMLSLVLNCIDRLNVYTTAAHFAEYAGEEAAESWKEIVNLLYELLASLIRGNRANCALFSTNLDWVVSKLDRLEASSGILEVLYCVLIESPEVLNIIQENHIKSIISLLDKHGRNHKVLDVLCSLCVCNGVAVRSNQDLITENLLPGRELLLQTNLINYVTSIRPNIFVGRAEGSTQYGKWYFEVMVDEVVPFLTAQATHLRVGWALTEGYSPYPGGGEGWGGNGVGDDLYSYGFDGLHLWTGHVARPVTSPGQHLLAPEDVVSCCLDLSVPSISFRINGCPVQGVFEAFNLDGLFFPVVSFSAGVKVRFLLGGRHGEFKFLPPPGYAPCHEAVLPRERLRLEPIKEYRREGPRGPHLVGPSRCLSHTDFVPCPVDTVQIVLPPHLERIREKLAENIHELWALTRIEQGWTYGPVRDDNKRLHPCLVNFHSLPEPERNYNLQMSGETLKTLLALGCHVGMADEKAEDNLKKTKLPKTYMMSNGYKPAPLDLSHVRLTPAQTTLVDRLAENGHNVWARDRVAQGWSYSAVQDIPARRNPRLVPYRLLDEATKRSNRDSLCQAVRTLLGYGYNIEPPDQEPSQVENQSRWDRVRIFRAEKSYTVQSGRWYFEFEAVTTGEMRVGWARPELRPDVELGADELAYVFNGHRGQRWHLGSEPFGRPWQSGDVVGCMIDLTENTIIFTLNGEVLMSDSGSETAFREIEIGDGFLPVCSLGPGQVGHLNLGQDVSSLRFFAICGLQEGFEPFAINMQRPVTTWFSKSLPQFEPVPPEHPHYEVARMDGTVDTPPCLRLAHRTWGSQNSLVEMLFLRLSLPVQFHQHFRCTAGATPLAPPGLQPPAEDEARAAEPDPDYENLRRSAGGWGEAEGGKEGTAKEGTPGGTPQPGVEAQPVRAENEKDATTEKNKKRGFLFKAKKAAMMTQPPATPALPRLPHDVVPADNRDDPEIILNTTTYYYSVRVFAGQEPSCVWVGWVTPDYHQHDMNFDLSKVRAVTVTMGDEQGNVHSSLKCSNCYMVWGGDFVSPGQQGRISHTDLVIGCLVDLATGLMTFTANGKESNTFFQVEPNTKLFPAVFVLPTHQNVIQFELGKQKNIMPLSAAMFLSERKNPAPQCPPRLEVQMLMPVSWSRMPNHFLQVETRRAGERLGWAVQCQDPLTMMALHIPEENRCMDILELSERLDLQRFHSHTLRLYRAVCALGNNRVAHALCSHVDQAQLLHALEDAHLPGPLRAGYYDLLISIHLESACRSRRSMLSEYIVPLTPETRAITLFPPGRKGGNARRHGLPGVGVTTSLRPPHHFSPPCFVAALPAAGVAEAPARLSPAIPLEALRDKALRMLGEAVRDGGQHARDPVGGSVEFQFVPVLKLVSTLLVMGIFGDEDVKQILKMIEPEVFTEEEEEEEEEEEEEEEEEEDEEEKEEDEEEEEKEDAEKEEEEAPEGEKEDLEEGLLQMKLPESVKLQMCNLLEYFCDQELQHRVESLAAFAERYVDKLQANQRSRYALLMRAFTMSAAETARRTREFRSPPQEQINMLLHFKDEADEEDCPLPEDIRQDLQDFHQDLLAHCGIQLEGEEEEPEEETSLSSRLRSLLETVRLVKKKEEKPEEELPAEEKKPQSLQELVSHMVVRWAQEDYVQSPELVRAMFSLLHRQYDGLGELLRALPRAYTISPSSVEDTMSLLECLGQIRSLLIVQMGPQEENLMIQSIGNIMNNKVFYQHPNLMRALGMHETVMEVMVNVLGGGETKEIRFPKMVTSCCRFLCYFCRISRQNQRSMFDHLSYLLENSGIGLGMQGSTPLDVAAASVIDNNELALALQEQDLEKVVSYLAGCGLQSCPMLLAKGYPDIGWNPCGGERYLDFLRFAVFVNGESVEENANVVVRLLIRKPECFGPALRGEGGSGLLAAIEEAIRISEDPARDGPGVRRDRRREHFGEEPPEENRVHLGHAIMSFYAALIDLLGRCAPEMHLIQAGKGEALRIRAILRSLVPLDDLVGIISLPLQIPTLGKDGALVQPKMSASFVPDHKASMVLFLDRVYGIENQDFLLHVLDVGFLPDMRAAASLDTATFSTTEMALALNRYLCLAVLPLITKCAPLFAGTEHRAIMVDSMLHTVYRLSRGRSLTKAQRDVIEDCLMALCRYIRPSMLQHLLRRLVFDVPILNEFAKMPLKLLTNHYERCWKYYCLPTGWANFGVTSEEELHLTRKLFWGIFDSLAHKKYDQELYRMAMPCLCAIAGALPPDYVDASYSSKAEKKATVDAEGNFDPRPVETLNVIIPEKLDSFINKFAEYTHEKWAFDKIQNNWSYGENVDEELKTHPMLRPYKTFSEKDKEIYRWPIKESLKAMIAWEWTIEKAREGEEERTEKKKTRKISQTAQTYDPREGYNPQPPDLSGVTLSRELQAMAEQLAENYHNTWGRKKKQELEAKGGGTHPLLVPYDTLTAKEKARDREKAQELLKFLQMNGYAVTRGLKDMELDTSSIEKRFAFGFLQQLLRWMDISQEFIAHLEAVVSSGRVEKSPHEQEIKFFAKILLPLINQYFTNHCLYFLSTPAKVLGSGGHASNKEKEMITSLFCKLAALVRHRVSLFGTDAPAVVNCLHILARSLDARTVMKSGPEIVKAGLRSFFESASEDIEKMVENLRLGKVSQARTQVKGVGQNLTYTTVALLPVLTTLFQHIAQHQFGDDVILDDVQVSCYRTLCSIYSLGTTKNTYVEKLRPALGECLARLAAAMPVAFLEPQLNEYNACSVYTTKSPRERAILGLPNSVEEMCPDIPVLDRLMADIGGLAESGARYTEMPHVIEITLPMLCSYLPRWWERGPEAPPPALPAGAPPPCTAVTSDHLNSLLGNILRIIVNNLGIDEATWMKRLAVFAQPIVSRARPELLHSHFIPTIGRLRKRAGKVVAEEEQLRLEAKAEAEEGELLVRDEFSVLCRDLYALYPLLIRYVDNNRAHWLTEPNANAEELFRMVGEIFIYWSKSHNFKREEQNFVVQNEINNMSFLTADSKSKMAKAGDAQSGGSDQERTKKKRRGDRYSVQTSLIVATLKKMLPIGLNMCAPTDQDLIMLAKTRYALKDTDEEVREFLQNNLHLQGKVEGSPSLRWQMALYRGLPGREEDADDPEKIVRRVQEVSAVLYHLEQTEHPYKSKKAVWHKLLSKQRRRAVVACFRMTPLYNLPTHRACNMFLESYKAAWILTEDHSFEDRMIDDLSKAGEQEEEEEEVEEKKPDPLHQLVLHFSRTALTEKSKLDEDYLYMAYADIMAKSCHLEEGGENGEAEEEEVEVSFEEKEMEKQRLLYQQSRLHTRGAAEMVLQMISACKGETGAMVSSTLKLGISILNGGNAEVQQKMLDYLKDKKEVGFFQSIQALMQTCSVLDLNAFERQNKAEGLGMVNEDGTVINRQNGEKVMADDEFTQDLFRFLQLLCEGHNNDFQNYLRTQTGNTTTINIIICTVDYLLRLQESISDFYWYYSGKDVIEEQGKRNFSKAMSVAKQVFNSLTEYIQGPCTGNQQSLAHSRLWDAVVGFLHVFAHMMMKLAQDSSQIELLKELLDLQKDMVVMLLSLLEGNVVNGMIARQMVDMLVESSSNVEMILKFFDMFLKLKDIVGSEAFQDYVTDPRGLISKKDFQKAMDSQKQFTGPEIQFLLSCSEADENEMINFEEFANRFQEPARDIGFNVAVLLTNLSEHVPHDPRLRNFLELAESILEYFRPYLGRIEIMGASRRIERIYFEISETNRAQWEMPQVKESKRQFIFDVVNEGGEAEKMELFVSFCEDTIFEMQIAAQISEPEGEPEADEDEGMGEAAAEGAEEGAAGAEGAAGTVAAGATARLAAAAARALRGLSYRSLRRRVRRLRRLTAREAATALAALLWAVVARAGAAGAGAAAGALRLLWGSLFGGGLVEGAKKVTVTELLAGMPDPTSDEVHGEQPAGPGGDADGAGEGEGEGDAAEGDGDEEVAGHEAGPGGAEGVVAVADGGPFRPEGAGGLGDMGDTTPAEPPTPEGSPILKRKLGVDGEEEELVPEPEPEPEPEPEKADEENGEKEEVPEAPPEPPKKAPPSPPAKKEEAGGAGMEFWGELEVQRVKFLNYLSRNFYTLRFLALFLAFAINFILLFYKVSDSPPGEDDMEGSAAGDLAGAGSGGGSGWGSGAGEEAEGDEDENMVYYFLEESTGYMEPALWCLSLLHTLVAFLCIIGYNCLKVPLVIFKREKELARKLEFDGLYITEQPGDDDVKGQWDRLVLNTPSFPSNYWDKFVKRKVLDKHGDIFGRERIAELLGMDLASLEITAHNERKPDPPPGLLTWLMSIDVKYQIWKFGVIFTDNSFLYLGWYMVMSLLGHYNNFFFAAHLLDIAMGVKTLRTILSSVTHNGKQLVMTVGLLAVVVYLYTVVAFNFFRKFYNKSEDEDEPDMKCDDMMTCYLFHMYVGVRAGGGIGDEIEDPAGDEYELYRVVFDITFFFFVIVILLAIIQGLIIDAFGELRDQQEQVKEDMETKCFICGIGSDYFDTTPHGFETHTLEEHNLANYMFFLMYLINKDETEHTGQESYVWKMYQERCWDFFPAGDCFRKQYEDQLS
T1 sequence (P11716 whole entry): as above
SR Ca^2+ release channel (junctional SR vesicles from rabbit skeletal muscle), sequence (P11716 whole entry): as above

In the case of `C=C1CCC2(O)C3(C)CC4(O)OC2(C1O)C1(O)C3(O)C(OC(=O)c2ccc[nH]2)C(O)(C(C)C)C41C` (stereo not drawn) [Dehydroryanodine, dehydroryanodine], in test [1] (I, NMDS: concentrations as high as 300 μM, ryanodine, dehydroryanodine: >μM), the “closing of the SR Ca^++ release channel (in words)” value is listed as “the channel is closed”. In addition, the “opening of the SR Ca^++ release channel (in words)” value in test [1] (ryanodine, dehydroryanodine: low concentrations (<μM)) is “opens the SR Ca^++ release channel/ryanodine receptor; also recorded: the Ca^++ release channel is opened”. In test [2], inhibition was half-maximal at 16.1 ± 4.1 nM (IC50) and the Kd turned out to be 5.4 ± 0.1 nM.
As for `CC1CCC2(O)C3(C)CC4(O)OC2(C1OC(=O)CNC(=O)OCc1ccccc1)C1(O)C3(O)C(OC(=O)c2ccc[nH]2)C(O)(C(C)C)C41C` (stereo not drawn) [I, O10eq-[(N'Carbobenzyloxy)-Glycyl]-Ryanodine], in test [1], the “closing of the SR Ca^++ release channel (in words)” value is listed as “neither XVII(NMDS) nor CBZ-glycyl-ryanodine (I) exhibits significant ability to close the channel” and the “opening of the SR Ca^++ release channel (in words)” value is “only slightly less active than ryanodine for opening the channel; also recorded: same selective activity of only opening this channel, albeit at higher dose levels”. Moreover, in test [1] (I vs XVIII (NMDS)), the “potency and selectivity comparison (in words)” value is “more potent and more selective than XVIII(NMDS)”. Besides, in test [3] (vs ryanodine), the “relative binding affinity compared with ryanodine (in words)” value (shortened to “relative binding affinity”) was “slightly enhanced affinity”. For the same molecule, the IC50 in test [2] (setting [5]) came out at 22.3 ± 7.3 nM. Further, the Kd in test [2] (setting [6]) was found to be 6.6 ± 2 nM.
Take `C=C1CCC2(O)C3(C)CC4(O)OC2(C1OC(=O)CCNC(=O)c1ccccc1)C1(O)C3(O)C(OC(=O)c2ccc[nH]2)C(O)(C(C)C)C41C` (stereo not drawn) [II, O10eg -(N-Benzoyl-β-alanyl)-Dehydroryanodine]: the half-inhibitory concentration (IC50) in test [2] (setting [5]) was 25.1 ± 8.2 nM. The Kd in test [2] (setting [6]) was determined as 8.2 ± 3.2 nM.
The matching figures for `C=C1CCC2(O)C3(C)CC4(O)OC2(C1OC(=O)CCNC(=O)C12CC5CC(CC(C5)C1)C2)C1(O)C3(O)C(OC(=O)c2ccc[nH]2)C(O)(C(C)C)C41C` (stereo not drawn) [III, O10eq-[N-(1-Adamantanecarbonyl)-β-Alanyl]-Dehydroryanodine]: 72.8 ± 6.2 nM and 26.9 ± 3.6 nM.
Turning to `CC1CCC2(O)C3(C)CC4(O)OC2(C1OC(=O)CCNC(=O)OCc1ccccc1)C1(O)C3(O)C(OC(=O)c2ccc[nH]2)C(O)(C(C)C)C41C` (stereo not drawn) [IV, O10eq. -Carbobenzyloxy-β-alanyl-ryanodine], in test [1], the “opening of the SR Ca^++ release channel (in words)” value is recorded as “same selective activity of only opening this channel, albeit at higher dose levels”. The IC50 in test [3] (Table I value multiplied by 6.2/11.9=0.52, read-out: adjusted IC50 value) is 6.4 nM; in test [3] (setting [7]) it was 5.9 nM; in test [2] (setting [5]), 12.3 ± 1 nM; in test [2] (restated for adjustment, read-out: IC50 value (Table I value as restated in text)), 12.3 nM. Also, in test [3] (vs ryanodine), the “relative binding affinity” value was “slightly enhanced affinity”. Further, in test [2] (setting [6]), the dissociation constant (Kd) was 4 ± 0.2 nM.
`CC1=C(C(C)C)C(OC(=O)c2ccc[nH]2)C2(O)C3(C)CC(=O)OC4(C(OC(=O)CCN)C(C)CCC34O)C12O` (stereo not drawn) [V-I, O10eq -β-Alanyl-Anhydroryanodine]: the IC50 is 37 nM in test [2] (setting [5]) and 106 nM in test [2] (setting [8]). Besides, in test [2] (first embodiment, read-out: KD), the Kd was 37 nM. For the same molecule, the “binding affinity as fraction of that of Ryanodine” value in test [2] (vs ryanodine) was 1/10.
As to `CC1CCC2(O)C3(C)CC4(O)OC2(C1OC(=O)CCNC(=O)c1cc(N=[N+]=[N-])ccc1[N+](=O)[O-])C1(O)C3(O)C(OC(=O)c2ccc[nH]2)C(O)(C(C)C)C41C` (stereo not drawn) [VI, O10eq-[N-(5-Azido-2-nitrobenzoyl)-β-Alanyl] Ryanodine], the “binding affinity for the ryanodine receptor (in words)” value in test [2] is “of a similar magnitude as that of ryanodine”. Besides, the IC50 was determined as 36.6 ± 2.8 nM in test [2] (setting [5]); 37.2 ± 9.7 nM in test [2] (VI prepared from V, read-out: IC50); 36.6 ± 2.8 nM in test [2] (setting [8]). In addition, the Kd in test [2] (setting [6]) is 12.5 ± 1 nM; in test [2] (VI prepared from V-II, read-out: KD (50)) it was 12.5 ± 1 nM; in test [2] (VI prepared from V, read-out: KD), 14 ± 3.6 nM; in test [2] (first embodiment, read-out: KD), 12.5 ± 1 nM.
As to `C=C1CCC2(O)C3(C)CC4(O)OC2(C1OC(=O)CCNC(=O)c1ccc(I)cc1)C1(O)C3(O)C(OC(=O)c2ccc[nH]2)C(O)(C(C)C)C41C` (stereo not drawn) [XII, p-Iodobenzoyl-β-alanyl-dehydroryanodine], in test [2], the “binding affinity for the ryanodine receptor (in words)” value is “binds effectively to the ryanodine receptor”. Also, the IC50 in test [2] (setting [5]) and in test [2] (setting [8]) was 16 nM each time. The dissociation constant (Kd) amounted to 5.2 nM in test [2] (setting [6]) and 5.2 nM in test [2] (first embodiment, read-out: KD).
Turning to `C=C1CCC2(O)C3(C)CC4(O)OC2(C1OC(=O)CCNC(=O)c1ccc(OCCCC)cc1)C1(O)C3(O)C(OC(=O)c2ccc[nH]2)C(O)(C(C)C)C41C` (stereo not drawn) [XIII, O10eq-[N-(p-n-Butoxybenzoyl)-β-Alanyl]-Dehydroryanodine], the results for the IC50 in test [2] (setting [5]) and in test [2] (setting [8]) were 28 ± 6.6 nM and 20.2 nM, respectively. Further, the Kd in test [2] (setting [6]) worked out at 9.7 ± 2.5 nM; in test [2] (first embodiment, read-out: KD), 6 nM.
The matching figures for `CC1CCC2(O)C3(C)CC4(O)OC2(C1OC(=O)CCNC(=O)CCCCC1SCC2NC(=O)NC21)C1(O)C3(O)C(OC(=O)c2ccc[nH]2)C(O)(C(C)C)C41C` (stereo not drawn) [XIV, O10eq -N-Biotinlyl-β-Alanyl-Ryanodine]: 65.1 ± 5.5 nM, 65.1 ± 3.5 nM, 24.9 ± 1.4 nM and 24.9 ± 1.4 nM.
As for `CC1=CC(C)=[N+]2C1=Cc1ccc(CCC(=O)NCCC(=O)OC3C(C)CCC4(O)C5(C)CC6(O)OC34C3(O)C5(O)C(OC(=O)c4ccc[nH]4)C(O)(C(C)C)C63C)n1[B-]2(F)F` (stereo not drawn) [XV, O10eq -N-BODIPY(FL C3)-β-Alanyl-Ryanodine], the IC50 in test [2] (setting [5]) and in test [2] (setting [8]) was 41.2 ± 2.7 nM in each case. Also, the Kd in test [2] (setting [6]) was 15.8 ± 1 nM; in test [2] (first embodiment, read-out: KD), 15.8 ± 1 nM.
Take `C=C1CCC2(O)C3(C)CC4(O)OC2(C1OC(=O)CCC(=O)O)C1(O)C3(O)C(OC(=O)c2ccc[nH]2)C(O)(C(C)C)C41C` (stereo not drawn) [XVII, Dehydroryanodine-O10eg -Hemi-Succinate]: the IC50 in test [2] (IC50 (nM)) is over 1000 nM.
In the case of `C=C1CCC2(O)C3(C)CC4(O)OC2(C1OC(=O)CCC(=O)NC)C1(O)C3(O)C(OC(=O)c2ccc[nH]2)C(O)(C(C)C)C41C` (stereo not drawn) [XVIII, N-Methyl-Dehydroryanodine-Succinamidate], in test [1], the “closing of the SR Ca^++ release channel (in words)” value was “neither XVII(NMDS) nor CBZ-glycyl-ryanodine (I) exhibits significant ability to close the channel” and the “opening of the SR Ca^++ release channel (in words)” value is given as “only slightly less active than ryanodine for opening the channel”. Further, the IC50 in test [2] (IC50 (nM)) turned out to be 49.4 ± 10.6 nM. For the same molecule, the Kd in test [2] (setting [6]) turned out to be 19.9 ± 5.8 nM.
For `CC1CCC2(O)C3(C)CC4(O)OC2(C1OC(=O)CCNC(=NC(=O)OCc1ccccc1)NC(=O)OCc1ccccc1)C1(O)C3(O)C(OC(=O)c2ccc[nH]2)C(O)(C(C)C)C41C` (stereo not drawn) [XX, O10eq -β-N,N'-bis-Cbz-guanidino-propionyl-ryanodine], the half-inhibitory concentration (IC50) in test [3] (setting [9]) was determined as 43.6 nM. Further, in test [3] (vs ryanodine), the “lessened affinity compared with ryanodine” value is given as 7-20 fold.
As for `CC1CCC2(O)C3(C)CC4(O)OC2(C1OC(=O)CCNC(=N)N)C1(O)C3(O)C(OC(=O)c2ccc[nH]2)C(O)(C(C)C)C41C` (stereo not drawn) [XXI, O10eq -β-Guanidinopropionyl-Ryanodine], the “opening (activation) of the SR CRC (in words)” value in test [4] is “appears to be purely an activator of the SR CRC”. Further, in test [4] (higher concentrations, up to 1 mM for V-II, XXI preliminary), the “closing (deactivation) of the SR CRC (in words)” value is “entirely lack the ability of ryanodine to close the SR CRC”. Further, the “pharmacological profile (in words)” value in test [4] (vs biphasic profile of ryanodine) was “altered--unidirectional--pharmacological profile, differing from the biphasic profile of ryanodine”. In addition, the IC50 in test [3] (setting [9]) was 1.1 ± 0.1 nM. Also, the “relative binding affinity” value is given as “about six times greater than that of ryanodine” in test [3] (vs ryanodine) and “high binding affinity” in test [3] (vs ryanodine, listed as O10eq -β-guanidinopropyl-ryanodine).
Regarding `CC1CCC2(O)C3(C)CC4(O)OC2(C1OC(=O)CN)C1(O)C3(O)C(OC(=O)c2ccc[nH]2)C(O)(C(C)C)C41C` (stereo not drawn) [XXII, O10eq -glycyl-ryanodine], the IC50 in test [3] (setting [9]) came to 1.8 ± 0.4 nM.
As for `CC1CCC2(O)C3(C)CC4(O)OC2(C1OC(=O)CNC(=NC(=O)OCc1ccccc1)NC(=O)OCc1ccccc1)C1(O)C3(O)C(OC(=O)c2ccc[nH]2)C(O)(C(C)C)C41C` (stereo not drawn) [XXIII, O10eq -N,N'-bis-(Cbz)-guanidinoacetyl-ryanodine], in test [3], the “lessened affinity compared with ryanodine” value is recorded as 7-20 fold. The IC50 in test [3] (IC50 (nM) ± S.D.) was determined as 136 nM.
As for `CC1CCC2(O)C3(OC4(O)C[C@]2(C)C2(O)[C@H](OC(=O)c5ccc[nH]5)C(O)(C(C)C)C4(C)C32O)[C@@H]1OC(=O)CN=C(N)N` (stereo partly drawn) [XXIV, O10eq -Guanidinoacetyl-Ryanodine], the IC50 was found to be 1.8 ± 0.2 nM in test [3] (setting [9]) and 1.8 nM in test [3] (setting [7]).
For the molecule `C=C1CCC2(O)C3(C)CC4(O)OC2(C1OC(=O)CCNC(=O)OCc1ccccc1)C1(O)C3(O)C(OC(=O)c2ccc[nH]2)C(O)(C(C)C)C41C` (stereo not drawn) [XXV, O10eq -CBZ-β-Alanyl-Dehydroryanodine], the IC50 in test [3] (setting [9]) was determined as 4.43 nM.
Same read-out and setting: to `C=C1CCC2(O)C3(C)CC4(O)OC2(C1OC(=O)CCN)C1(O)C3(O)C(OC(=O)c2ccc[nH]2)C(O)(C(C)C)C41C` (stereo not drawn) [XXVI, O10eq -β-Alanyl-Dehydroryanodine] belongs 3.36 nM.
In the case of `CC1CCC2(O)C3(C)CC4(O)OC2(C1OC(=O)CCNC(=O)CCNC(=O)c1cc(I)c(N=[N+]=[N-])cc1O)C1(O)C3(O)C(OC(=O)c2ccc[nH]2)C(O)(C(C)C)C41C` (stereo not drawn) [XXXI, O10eq N-(4-azido-5-^125 Iodosalicyloyl)-β-alanyl-β-alanyl ryanodine], the “deactivation of the CRC in calcium flux experiments (in words)” value in test [4] (concentrations greater than 1 mM, non-radioactive compound) is given as “does not deactivate the CRC”. Moreover, the IC50 in test [2] (non-radioactive compound, read-out: IC50) was 25.1 ± 2.5 nM.
